Measured values taken from patent publication US20110237500A1, “CECROPIN-MAGAININ HYBRID PEPTIDES” (priority 2008, published 2011).

Assays:
Type in all cases: cell-based
B. thailandensis E264 = system: B. thailandensis E264; set-up: key: —: No effect (i.e. no significant difference between control [culture with no peptide] and culture with peptide); *: ~1 log effect (i.e. culture with peptide that's growth was ~1 log less than control); **: 1-2 log effect; ***: 2-4 log effect; ****: >4 log effect; “”: “Immediate effect” (i.e. loss of growth by at least 1 log compared to control immediately on addition of peptide [T = 0])
[1] = system: Y. pseudotuberculosis IP32593; set-up: key: —: No effect (i.e. no significant difference between control [culture with no peptide] and culture with peptide); *: ~1 log effect (i.e. culture with peptide that's growth was ~1 log less than control); **: 1-2 log effect; ***: 2-4 log effect; ****: >4 log effect; “”: “Immediate effect” (i.e. loss of growth by at least 1 log compared to control immediately on addition of peptide [T = 0])
F. novicida U112 = system: F. novicida U112; set-up: key: —: No effect (i.e. no significant difference between control [culture with no peptide] and culture with peptide); *: ~1 log effect (i.e. culture with peptide that's growth was ~1 log less than control); **: 1-2 log effect; ***: 2-4 log effect; ****: >4 log effect; “”: “Immediate effect” (i.e. loss of growth by at least 1 log compared to control immediately on addition of peptide [T = 0])
F. tularensis LVS = system: F. tularensis LVS; set-up: key: —: No effect (i.e. no significant difference between control [culture with no peptide] and culture with peptide); *: ~1 log effect (i.e. culture with peptide that's growth was ~1 log less than control); **: 1-2 log effect; ***: 2-4 log effect; ****: >4 log effect; “”: “Immediate effect” (i.e. loss of growth by at least 1 log compared to control immediately on addition of peptide [T = 0])
S. aureus ATCC29213 = assay: Viable count (CFU/ml) time-kill assay of peptides with bacteria; details: 102 μg/ml peptide, 37° C., growth versus PBS control

**Q.** What does the source list for GIGKFLHSAKKFGKAFVGEIMNS [Magainin II]?
**A.** Effect of peptides after 4 hours incubation with bacteria: B. thailandensis E264 (B. thailandensis E264): —; Effect of peptides after 4 hours incubation with bacteria: Y. pseudotuberculosis IP32593 [1]: —; Effect of peptides after 4 hours incubation with bacteria: F. novicida U112 (F. novicida U112): —; Effect of peptides after 4 hours incubation with bacteria: F. tularensis LVS (F. tularensis LVS): —; Effect of peptides after 4 hours incubation with bacteria: S. aureus ATCC29213 (S. aureus ATCC29213): **** (>4 log effect)
